From patent US20090099351A1, “NYLON POLYRIBONUCLEOSIDES” (New York University, priority 2007, published 2009)

Tested on: Phosphodiesterase II (calf spleen phosphodiesterase, CSP)
Experiment: Phosphodiesterase II (CSP) controlled exonuclease digestion monitored by MALDI-TOF MS
Assay type: in vitro ADME
Details: 37° C.; for time for CSP digestion to reach the modified nucleotides: 5′-3′ exonuclease; for degradation of the remaining modified fragment by CSP: after 4 h, fragment starting at modified nucleotides
Procedure: Phosphodiesterase II controlled digestion for ODNs sequencing. The controlled digestion procedure followed slight modification of the reported protocol (Chou et al., 2000). ODN ([…] in 5 μL water) was mixed with phosphodiesterase II (calf spleen phosphodiesterase, CSP) solution (5 milliunits in 5 μL water) and ammonium citrate water solution (1 μL, 50 g/L). After vortex mixing and centrifuge, the mixture was incubated at 37° C. Aliquots (1 μL) were removed after 0.5, 2, 4, 9, 15, 20, 30, 40, 60, 240 min and quickly mixed with trihydroxyacetophenone (THAP, as MALDI-TOF matrix) solution (1 μL, 30 mg in 1 mL methanol) before being placed in dry ice to quench the reaction. All digestion aliquots were spotted on a target and analyzed by MALDI-TOF MS.
To locate the modified regions of nylon nucleic acid, controlled exonuclease digestion was performed on the template-synthesized nylon nucleic acid 3b and 8b with DNA 1 as a control, and monitored as a function of time. Phosphodiesterase II (calf spleen phosphodiesterase, CSP) served as the exonuclease, cleaving from the 5′-terminus. […] In 2 min, the digestion of 3b reached modified nucleotides UnUc. It took 4 min for the digestion of 8b to move to the modified region. […] It has been reported that CSP is inhibited by sugar-modified nucleotides (Pieles et al., 1993) and not by base-modified nucleotides, so these CSP digestion results are consistent with the 2′-ribose modification present in nylon nucleic acids. Furthermore, the sequence information about modified nucleotides from the 5′-end within nylon nucleic acids were also verified.

Row | Substance | time for CSP digestion to reach the modified nucleotides [min] | degradation of the remaining modified fragment by CSP | DNA fragments remaining after CSP digestion (in 1 h)
1 | 5′-GCATAGTTUnUcTTGTCTAC [3b] | 2 | no degradation was detected | 
2 | 5′-GCATAGUcUnnUccUnnUccUnGTCTAC [8b] | 4 | no degradation was detected | 
3 | 5′-GCATAGTTTTTTGTCTAC (DNA, backbone and methylation of C not given here) [DNA 1, reference compound] |  |  | no DNA fragments longer than trimer were detected
